# What was measured:
# [1] = system: Plasmodium falciparum; experiment: Antimalarial activity against asexual blood stage Plasmodium falciparum infected in RBC measured after 72 hrs by LDH release assay; format: functional, organism-based; conditions: Erythrocyte
# [2] = target: Plasmepsin X (Plasmodium falciparum (isolate 3D7)) (UniProt Q8IAS0); experiment: Inhibition of Plasmodium falciparum 3D7 HA-glms-tagged PMX at 10 nM using DABCYL-HSFIQEGKEE-EDANS as substrate measured after 2 hrs by FRET assay relative to control
# [3] = target: T1, Plasmepsin IX (Plasmodium falciparum) (UniProt Q8ILG2); experiment: Inhibition of Plasmodium falciparum 3D7 HA-glms-tagged PMIX at 10 nM using DABCYL-HSFIQEGKEE-EDANS as substrate measured after 2 hrs by FRET assay relative to control
# T1 sequence (whole entry): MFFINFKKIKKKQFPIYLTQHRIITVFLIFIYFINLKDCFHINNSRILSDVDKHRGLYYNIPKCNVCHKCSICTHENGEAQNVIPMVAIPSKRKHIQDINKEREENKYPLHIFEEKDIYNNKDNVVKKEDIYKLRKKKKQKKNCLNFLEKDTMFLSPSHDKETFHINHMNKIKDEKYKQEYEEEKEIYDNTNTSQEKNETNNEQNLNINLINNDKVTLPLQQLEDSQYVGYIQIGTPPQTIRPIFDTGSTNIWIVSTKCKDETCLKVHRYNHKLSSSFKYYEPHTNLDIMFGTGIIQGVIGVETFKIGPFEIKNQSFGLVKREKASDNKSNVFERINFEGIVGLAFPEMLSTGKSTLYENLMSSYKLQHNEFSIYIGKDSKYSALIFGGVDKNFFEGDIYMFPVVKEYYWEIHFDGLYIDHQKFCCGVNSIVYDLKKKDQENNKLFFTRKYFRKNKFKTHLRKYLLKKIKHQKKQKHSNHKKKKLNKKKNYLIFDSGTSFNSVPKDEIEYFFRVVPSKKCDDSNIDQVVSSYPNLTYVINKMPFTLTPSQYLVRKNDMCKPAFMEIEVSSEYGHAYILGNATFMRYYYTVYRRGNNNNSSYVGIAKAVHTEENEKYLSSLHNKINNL
# [4] = system: Plasmodium falciparum; experiment: Antimalarial activity Plasmodium falciparum Dd2 assessed as EC90 fold pressure measured up to 62 days by microscopy; format: functional; conditions: Dd2, 1488 h, time <= 62 day
# [5] = system: Plasmodium falciparum; experiment: Antimalarial activity Plasmodium falciparum Dd2 assessed as minimum inoculum for resistance measured up to 62 days by microscopy; format: functional; conditions: time <= 62 day
# [6] = target: Plasmepsin X (Plasmodium falciparum (isolate 3D7), UniProt Q8IAS0); experiment: Inhibition of Plasmodium falciparum 3D7 HA-glms-tagged PMX using DABCYL-HSFIQEGKEE-EDANS as substrate measured after 2 hrs by FRET assay
# [7] = target: T2, Plasmepsin IX (Plasmodium falciparum, UniProt Q8ILG2); experiment: Inhibition of Plasmodium falciparum 3D7 HA-glms-tagged PMIX using DABCYL-HSFIQEGKEE-EDANS as substrate measured after 2 hrs by FRET assay
# T2 sequence (Q8ILG2 whole entry): T1 sequence (whole entry)
# [8] = Lipophilicity, log D of compound at pH 7.4; format: physicochemical; conditions: buffer
# [9] = Kinetic solubility of the compound; format: physicochemical; conditions: read-out: Kinetic_solubility
# [10] = Apparent permeability across apical to basolateral side in MDCK cells; format: ADME, cell-based, Canis lupus familiaris; conditions: dog
# [11] = Mean residence time in rat; format: ADME; conditions: in vivo
# [12] = Plasma clearance in rat; format: ADME
# [13] = Unbound clearance in rat; format: ADME; conditions: in vivo
# [14] = Volume of distribution in rat; format: ADME; conditions: in vivo
# [15] = Unbound volume of distribution in rat; format: ADME; conditions: in vivo
# [16] = Oral bioavailability in rat; format: ADME, organism-based; conditions: in vivo
# [17] = Protein binding in rat plasma; format: ADME, cell-free; conditions: read-out: PPB (converted)
# [18] = Mean residence time in mouse; format: ADME, organism-based; conditions: in vivo
# [19] = Plasma clearance in mouse; format: ADME, organism-based
# [20] = Unbound plasma clearance in mouse; format: ADME, organism-based; conditions: in vivo
# [21] = Volume of distribution in mouse; format: ADME, organism-based; conditions: in vivo
# [22] = Unbound volume of distribution in mouse; format: ADME, organism-based; conditions: in vivo
# [23] = Oral bioavailability in mouse; format: ADME, organism-based; conditions: in vivo
# [24] = Protein binding in mouse plasma; format: ADME, cell-free; conditions: read-out: PPB (converted)
# Sequence of Plasmepsin X (Q8IAS0 whole entry): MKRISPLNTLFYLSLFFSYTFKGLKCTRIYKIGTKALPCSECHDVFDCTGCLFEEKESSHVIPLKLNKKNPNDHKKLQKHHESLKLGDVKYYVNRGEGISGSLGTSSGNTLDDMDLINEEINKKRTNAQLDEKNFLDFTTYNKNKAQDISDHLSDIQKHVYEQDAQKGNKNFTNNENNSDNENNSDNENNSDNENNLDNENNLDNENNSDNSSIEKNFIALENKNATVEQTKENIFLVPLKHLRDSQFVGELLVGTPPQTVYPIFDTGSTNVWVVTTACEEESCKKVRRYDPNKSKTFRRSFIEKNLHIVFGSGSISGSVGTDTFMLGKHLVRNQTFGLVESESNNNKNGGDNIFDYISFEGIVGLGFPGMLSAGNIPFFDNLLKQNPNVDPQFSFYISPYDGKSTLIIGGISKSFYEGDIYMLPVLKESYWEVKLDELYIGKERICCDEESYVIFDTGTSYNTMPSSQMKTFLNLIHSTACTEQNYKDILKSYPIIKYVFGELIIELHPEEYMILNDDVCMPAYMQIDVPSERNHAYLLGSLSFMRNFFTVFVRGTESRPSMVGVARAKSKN
# Sequence of Plasmepsin X (Plasmodium falciparum (isolate 3D7)) (Q8IAS0 whole entry): as above
smiles,measurement,setting,value
C[C@H](NC(=O)c1cc(F)cc(CN2C(=N)N[C@@](CC3CC3)(c3ccccc3)CC2=O)c1)c1ccccc1,EC50,[1],22 nM
CCC1(CC)CC(=O)N([C@@H]2CCOc3ccc(C(=O)NC4CC(=O)Oc5ccccc54)cc32)C(=N)N1 (mixture of isomers),EC50,[1],220 nM
same,inhibition,[2],40%
same,inhibition,[3],12%
C[C@H](NC(=O)c1cc(F)cc(CN2C(=N)N[C@]3(C)CCCC[C@]3(C)C2=O)c1)c1ccccc1,EC50,[1],> 1000 nM
CC(C)[C@]1(C)CC(=O)N(Cc2cccc(C(=O)N[C@@H](C)c3ccccc3)c2)C(=N)N1,EC50,[1],308 nM
CC(C)[C@]1(C)CC(=O)N(Cc2cc(F)cc(C(=O)N[C@@H](C)c3ccccc3)c2)C(=N)N1,EC50,[1],340 nM
CCC1(CC)CC(=O)N([C@H](CCN2CCCC2)c2cccc(C(=O)N[C@@H](C)c3ccccc3)c2)C(=N)N1,EC50,[1],8.7 nM
CCNC(=O)c1cccc(CN2C(=N)N[C@](C)(C(C)C)CC2=O)c1,EC50,[1],> 1000 nM
CC(C)[C@]1(C)CC(=O)N(C(c2ccccc2)c2cccc(C(=O)N[C@@H](C)c3ccccc3)c2)C(=N)N1 (stereo partly drawn),EC50,[1],6.2 nM
same,EC90,[4],80 nM
same,Activity,[5],>9
CCC1(CC)CC(=O)N(Cc2cc(C(=O)N[C@H]3CCOc4ccccc43)ccn2)C(=N)N1,EC50,[1],12 nM
CCC1(CC)CC(=O)N(Cc2cc(C(=O)N[C@H]3CCOc4ccccc43)cnn2)C(=N)N1,EC50,[1],169 nM
"C[C@H](NC(=O)c1cc(F)cc(CN2C(=N)NC(c3ccccc3)CC2=O)c1)c1ccccc1 (single isomer, unassigned)",EC50,[1],> 1000 nM
CC(C)[C@]1(C)CC(=O)N([C@@H](c2ccccc2)c2cccc(C(=O)N[C@@H](C)c3ccccc3)c2)C(=N)N1,EC50,[1],440 nM
CCC1(CC)CC(=O)N([C@@H]2CCOc3ccc(C(=O)N[C@@H]4c5ccccc5OC4(C)C)cc32)C(=N)N1,EC50,[1],1.4 nM
same,IC50,[6],0.4 nM
same,IC50,[7],12 nM
CCC1(CC)CC(=O)N(Cc2cccc(C(=O)N[C@H]3CCOc4ccccc43)n2)C(=N)N1,EC50,[1],110 nM
CC(C)[C@]1(C)CC(=O)N(Cc2cccc(C(=O)NC3CCNc4ccccc43)c2)C(=N)N1 (mixture of isomers),EC50,[1],64 nM
CC(C)[C@]1(C)CC(=O)N([C@H](c2ccccc2)c2cccc(C(=O)N[C@@H](C)c3ccccc3)c2)C(=N)N1,EC50,[1],4.6 nM
same,IC50,[6],1.9 nM
CC(NC(=O)c1cccc(CN2C(=N)N[C@](C)(C(C)C)CC2=O)c1)c1ccccn1 (mixture of isomers),EC50,[1],> 1000 nM
CCC1(CC)CC(=O)N(Cc2cccc(C(=O)N[C@@H](C)c3ccccc3)c2)C(=N)N1,EC50,[1],114 nM
CCC1(CC)CC(=O)N([C@H](CCOC)c2cccc(C(=O)N[C@@H](C)c3ccccc3)c2)C(=N)N1,EC50,[1],40 nM
CC(C)[C@]1(C)CC(=O)N(Cc2cccc(C(=O)N3Cc4ccccc4C3)c2)C(=N)N1,EC50,[1],> 1000 nM
C[C@H](NC(=O)c1cc(F)cc(CN2C(=N)NC3(CCCCC3)CC2=O)c1)c1ccccc1,EC50,[1],250 nM
CCC1(CC)CC(=O)N([C@@H]2CCOc3ccc(C(=O)N[C@H]4CCS(=O)(=O)c5ccccc54)cc32)C(=N)N1,EC50,[1],18 nM
same,IC50,[6],0.3 nM
same,IC50,[7],24 nM
CCC1(CC)CC(=O)N(Cc2cncc(C(=O)N[C@H]3CCOc4ccccc43)c2)C(=N)N1,EC50,[1],10 nM
CCC1(CC)CC(=O)N([C@@H](c2ccccc2)c2cccc(C(=O)N[C@@H](C)c3ccccc3)c2)C(=N)N1,EC50,[1],830 nM
C[C@H](NC(=O)c1cc(F)cc(CN2C(=N)NC(C)(C)CC2=O)c1)c1ccccc1,EC50,[1],> 1000 nM
CC(C)[C@]1(C)CC(=O)N(Cc2cccc(C(=O)NC3CCCc4ccccc43)c2)C(=N)N1 (mixture of isomers),EC50,[1],68 nM
CCC1(CC)CC(=O)N(C(c2cccc(C(=O)N[C@@H](C)c3ccccc3)c2)C2CC2)C(=N)N1 (mixture of isomers),EC50,[1],160 nM
CCC[C@H](c1cccc(C(=O)N[C@H]2CCOc3ccccc32)c1)N1C(=N)NC(CC)(CC)CC1=O,EC50,[1],0.4 nM
same,IC50,[6],0.06 nM
same,IC50,[7],4.5 nM
same,logD,[8],2.9
same,solubility kinetic,[9],0.2 µM
same,Papp A→B,[10],16.3 ×10⁻⁶ cm/s
same,MRT,[11],1.1 h
same,clearance,[12],103 mL/min/kg
same,CL free,[13],5648 mL/min/kg
same,Vd,[14],6.7 L/kg
same,Vdu,[15],340 L/kg
same,bioavailability,[16],6%
same,fraction unbound,[17],0.02
same,MRT,[18],1.1 h
same,clearance,[19],36 mL/min/kg
same,CL free,[20],3148 mL/min/kg
same,Vd,[21],2.3 L/kg
same,Vdu,[22],204 L/kg
same,bioavailability,[23],14%
same,fraction unbound,[24],0.011
CC(C)C[C@H](c1ccc(C(F)(F)F)c(C(=O)N2Cc3nccnc3C2)c1)N1C(=N)N[C@](CC2CC2)(c2ccccc2)CC1=O,EC50,[1],10 nM
same,IC50,[6],5.7 nM
CCC1(CC)CC(=O)N(Cc2cccc(C(=O)N[C@H]3CCOc4ccccc43)c2)C(=N)N1,EC50,[1],0.4 nM
CC(C)[C@]1(C)CC(=O)N(Cc2cccc(C(=O)NC3CCc4ccccc43)c2)C(=N)N1 (mixture of isomers),EC50,[1],66 nM
CCC1(CC)CC(=O)N([C@@H]2CCOc3ccc(C(=O)N[C@H]4CC(C)(C)Oc5ccccc54)cc32)C(=N)N1,EC50,[1],0.4 nM
same,IC50,[6],0.03 nM
same,IC50,[7],1.4 nM
same,logD,[8],2.5
same,solubility kinetic,[9],0.1 µM
same,MRT,[11],3.7 h
same,clearance,[12],42 mL/min/kg
same,CL free,[13],1022 mL/min/kg
same,Vd,[14],9.4 L/kg
same,Vdu,[15],222 L/kg
same,bioavailability,[16],8%
same,MRT,[18],2.5 h
same,clearance,[19],42 mL/min/kg
same,CL free,[20],774 mL/min/kg
same,Vdu,[22],120 L/kg
same,EC90,[4],1.5 nM
same,Activity,[5],>9
CCC1(CC)NC(=N)N(Cc2cc(F)cc(C(=O)N[C@@H](C)c3ccccc3)c2)C1=O,EC50,[1],> 1000 nM
CCC1(CC)CC(=O)N([C@H](CCO)c2cccc(C(=O)N[C@@H](C)c3ccccc3)c2)C(=N)N1,EC50,[1],210 nM
"CCC1(CC)CC(=O)N([C@@H]2CCOc3ccc(C(=O)NC4CCOc5ccccc54)cc32)C(=N)N1 (single isomer, unassigned)",EC50,[1],2.5 nM
same,IC50,[6],0.07 nM
same,IC50,[7],2.2 nM
same,logD,[8],2.1
same,solubility kinetic,[9],0.2 µM
same,Papp A→B,[10],8.8 ×10⁻⁶ cm/s
same,MRT,[11],2.7 h
same,clearance,[12],79 mL/min/kg
same,CL free,[13],518 mL/min/kg
same,Vd,[14],12 L/kg
same,Vdu,[15],80 L/kg
same,bioavailability,[16],27%
same,fraction unbound,[17],0.152
same,MRT,[18],1.3 h
same,clearance,[19],68 mL/min/kg
same,CL free,[20],1278 mL/min/kg
same,Vd,[21],5.4 L/kg
same,Vdu,[22],102 L/kg
same,bioavailability,[23],4%
same,fraction unbound,[24],0.053
CC(C)C[C@@H](c1ccc(C(F)(F)F)c(C(=O)N2Cc3nccnc3C2)c1)N1C(=N)N[C@](CC2CC2)(c2ccccc2)CC1=O,EC50,[1],690 nM
CCC1(CC)CC(=O)N([C@@H]2CCOc3ccc(C(=O)N[C@H]4CCCOc5ccccc54)cc32)C(=N)N1,EC50,[1],2.8 nM
same,IC50,[6],0.6 nM
same,IC50,[7],68 nM
CC(C)[C@]1(C)CC(=O)N(Cc2cccc(C(=O)NC3COCc4ccccc43)c2)C(=N)N1 (mixture of isomers),EC50,[1],53 nM
CCC1(CC)CC(=O)N([C@H](c2ccccc2)c2cccc(C(=O)N[C@@H](C)c3ccccc3)c2)C(=N)N1,EC50,[1],1 nM
CCC1(CC)CC(=O)N(Cc2ccnc(C(=O)N[C@H]3CCOc4ccccc43)c2)C(=N)N1,EC50,[1],17 nM
CC(C)[C@]1(C)CC(=O)N(Cc2cccc(C(=O)NCCc3ccccc3)c2)C(=N)N1,EC50,[1],> 1000 nM
CCC1(CC)CC(=O)N(Cc2ccnc(C(=O)N[C@H]3CCOc4ccccc43)n2)C(=N)N1,EC50,[1],65 nM
CCC1(CC)CC(=O)N([C@H](c2cccnc2)c2cccc(C(=O)N[C@@H](C)c3ccccc3)c2)C(=N)N1,EC50,[1],1 nM
CC(C)CC(c1ccc(C(F)(F)F)c(C(=O)N2Cc3nccnc3C2)c1)N1C(=N)N[C@](CC2CC2)(c2ccccc2)CC1=O (stereo partly drawn),EC50,[1],17 nM
CC(C)[C@]1(C)CC(=O)N(Cc2cccc(C(=O)N[C@H]3CCOc4ccccc43)c2)C(=N)N1,EC50,[1],1.5 nM
CCC[C@H](c1cccc(C(=O)N[C@@H](C)c2ccccc2)c1)N1C(=N)NC(CC)(CC)CC1=O,EC50,[1],0.8 nM
CCC1(CC)CC(=O)N(Cc2cc(F)cc(C(=O)N[C@@H](C)c3ccccc3)c2)C(=N)N1,EC50,[1],93 nM

# Reference: ChEMBL document CHEMBL5126668, “The Invention of WM382, a Highly Potent PMIX/X Dual Inhibitor toward the Treatment of Malaria” (ACS Med Chem Lett, 2022)
